Counter-ions that a name gives are not always drawn.
Experiments:
Format in all cases: biochemical
Human plasma [1] = assay: Human plasma anticoagulation, prothrombin time (PT); conditions: concentration required to double the PT, linear extrapolation
Protocol: (§1) Dog plasma and rat plasma is obtained from conscious mixed-breed hounds (either sex, Hazelton-LRE, Kalamazoo, Mich., U.S.A.) or from anesthetized male Sprague-Dawley rats (Harlan Sprague-Dawley, Inc., Indianapolis, Ind., U.S.A.) by venipuncture into 3.8 percent citrate. Fibrinogen is prepared from in-date ACD human blood as the fraction I-2 according to previous procedures and specifications. […] Human fibrinogen is also purchased as 98 percent pure/plasmin free from American Diagnostica, Greenwich, Conn. Coagulation reagents ACTIN, Thromboplastin, and Human plasma are from Baxter Healthcare Corp., Dade Division, Miami, Fla. Bovine thrombin from Parke-Davis ([…], Mich.) is used for coagulation assays in plasma.
(§2) Coagulation assay procedures are as previously described. […] A CoAScreener coagulation instrument (American LABor, Inc.) is used for all coagulation assay measurements. The prothrombin time (PT) is measured by adding 0.05 mL saline and 0.05 mL Thromboplastin-C reagent to 0.05 mL test plasma. The activated partial thromboplastin time (APTT) is measured by incubation of 0.05 mL test plasma with 0.05 mL Actin reagent for 120 seconds followed by 0.05 mL CaCl2 (0.02M). The thrombin time (TT) is measured by adding 0.05 mL saline and 0.05 mL thrombin (10 NIH units/mL) to 0.05 mL test plasma. The compounds of Formula I are added to human or animal plasma over a wide range of concentrations to determine prolongation effects on the APTT, PT, and TT assays. Linear extrapolations are performed to estimate the concentrations required to double the clotting time for each assay.

Human plasma [2] = assay: Human plasma anticoagulation, thrombin time (TT); conditions: concentration required to double the thrombin time, linear extrapolation
Protocol: as §1, §2

Human plasma [3] = assay: Human plasma anticoagulation, activated partial thromboplastin time (APTT); conditions: concentration required to double the APTT, linear extrapolation
Protocol: as §1, §2

| SMILES | Human Plasma Anticoagulation 2× Clotting time (ng/mL) PT (Human plasma [1]) | Human Plasma Anticoagulation 2× Clotting time (ng/mL) TT (Human plasma [2]) | Human Plasma Anticoagulation 2× Clotting time (ng/mL) APTT (Human plasma [3]) |
| --- | --- | --- | --- |
| Cl.N=C(N)c1ccc(CCCNC(=O)C2CCCN2C(=O)C2NCCC3CCCCC32)cc1 (stereo not drawn) [Example 32, 1-Piq-Pro-p-NHCH2 CH2 CH2 --C6 H4 C(=NH)NH2.HCl] | 47,800 ng/mL | 3,100 ng/mL | 28,500 ng/mL |
| N=C(N)c1cccc(CCCNC(=O)[C@@H]2CCCN2C(=O)[C@@H]2NCC[C@@H]3CCCC[C@@H]32)c1 [Example 33, 1-Piq-Pro-m-NHCH2 CH2 CH2 --C6 H4 C(=NH)NH2.HCl] | 70,900 ng/mL | 18,900 ng/mL | 59,300 ng/mL |
| CCS(=O)(=O)N[C@H](Cc1ccccc1)C(=O)N1CCC[C@H]1C(=O)NCc1ccc(NC(=N)N)cc1 [Example 34, EtSO2 -D-Phe-Pro-p-NHCH2 C6 H4 NHC(NH)NH2.HCl] | 5,500 ng/mL | 530 ng/mL | 4,900 ng/mL |
| CCS(=O)(=O)N[C@H](Cc1ccccc1)C(=O)N1CCC[C@H]1C(=O)NCc1cccc(NC(=N)N)c1 [Example 36, EtSO2 -D-Phe-Pro-m-NHCH2 C6 H4 NHC(NH)NH2.HCl] | > 91,000 ng/mL | 7,700 ng/mL | > 91,000 ng/mL |
| CCS(=O)(=O)N[C@H](Cc1ccccc1)C(=O)N1CCC[C@H]1C(=O)NCCc1cccc(N=C(N)N)c1.Cl [Example 37, EtSO2 -D-Phe-Pro-m-NHCH2 CH2 C6 H4 NHC(NH)NH2.HCl] | > 9,000 ng/mL | > 9,000 ng/mL | > 9,000 ng/mL |
| N=C(N)Nc1ccc(CNC(=O)[C@@H]2CCCN2C(=O)[C@@H]2NCC[C@@H]3CCCC[C@@H]32)cc1 [Example 38, D-1-Piq-Pro-p-NHCH2 C6 H4 NHC(NH)NH2.2HCl] | 11,100 ng/mL | 540 ng/mL | 6,100 ng/mL |
| N=C(N)Nc1ccc(CCNC(=O)[C@@H]2CCCN2C(=O)[C@@H]2NCC[C@@H]3CCCC[C@@H]32)cc1 [Example 39, D-1-Piq-Pro-p-NHCH2 CH2 C6 H4 NHC(NH)NH2.2HCl] | 78,600 ng/mL | 5,300 ng/mL | 69,200 ng/mL |
| N=C(N)Nc1cccc(CNC(=O)[C@@H]2CCCN2C(=O)[C@@H]2NCC[C@@H]3CCCC[C@@H]32)c1 [Example 40, D-1-Piq-Pro-m-NHCH2 C6 H4 NHC(NH)NH2.2HCl] | > 91,000 ng/mL | 35,100 ng/mL | > 91,000 ng/mL |
| N=C(N)Nc1cccc(CCNC(=O)[C@@H]2CCCN2C(=O)[C@@H]2NCC[C@@H]3CCCC[C@@H]32)c1 [Example 41, D-1-Piq-Pro-m-NHCH2 CH2 C6 H4 NHC(NH)NH2.2HCl] | > 91,000 ng/mL | 82,200 ng/mL | > 91,000 ng/mL |
| Cl.N=C(N)c1ccc(CNC(=O)C2CC3CCCCC3N2C(=O)C(CC2CCCCC2)NCC(=O)O)cc1 [Example 49, HOOCCH2 -D-Cha-cis-Ohi-p-NHCH2 C6 H4 C(NH)NH2.HCl] | 130 ng/mL | 5 ng/mL | 130 ng/mL |
| Cl.Cl.N=C(N)c1ccc(CNC(=O)[C@@H]2CCCN2C(=O)[C@H](N)CC2CCCCC2)cc1 [Example 51, D-Cha-Pro-p-NHCH2 C6 H4 C(NH)NH2.2HCl] | 110 ng/mL | 2 ng/mL | 48 ng/mL |
| Cl.N=C(N)c1ccc(CNC(=O)[C@@H]2CCCN2C(=O)[C@@H](CC2CCCCC2)NCCC(=O)O)cc1 [Example 52, HOOCCH2 CH2 -D-Cha-Pro-p-NHCH2 C6 H4 C(NH)NH2.HCl] | 170 ng/mL | 6 ng/mL | 80 ng/mL |
| O=C(O)CN[C@H](CC1CCCCC1)C(=O)N1CCC[C@H]1C(=O)NCC1CCNCC1 [Example 53, HO2 CCH2 -D-Cha-Pro-4-NHCH2 -piperidine.HCl] | 34,500 ng/mL | 1,400 ng/mL | 33,800 ng/mL |
| Cl.O=C(O)CNC(CC1CCCCC1)C(=O)N1CCCC1C(=O)NCCC1CCNCC1 [Example 54, HO2 CCH2 -D-Cha-Pro-4-NHCH2 CH2 -piperidine.HCl] | 2,200 ng/mL | 140 ng/mL | 3,300 ng/mL |
| O=C(O)CN[C@H](CC1CCCCC1)C(=O)N1CCC[C@H]1C(=O)NCCCC1CCNCC1 [Example 55, HO2 CCH2 -D-Cha-Pro-4-NHCH2 CH2 CH2 -piperidine.HCl] | > 91,000 ng/mL | 55,800 ng/mL | > 91,000 ng/mL |
| Cl.N=C(N)N1CCC(CNC(=O)[C@@H]2CCCN2C(=O)[C@@H](CC2CCCCC2)NCC(=O)O)CC1 [Example 56, HO2 CCH2 -D-Cha-Pro-4-NHCH2 -1-amidinopiperidine.HCl] | 200 ng/mL | 5 ng/mL | 160 ng/mL |
| N=C(N)N1CCC(CCNC(=O)[C@@H]2CCCN2C(=O)[C@@H](CC2CCCCC2)NCC(=O)O)CC1 [Example 57, HO2 CCH2 -D-Cha-Pro-4-NHCH2 CH2 -1-amidinopiperidine.HCl] | 340 ng/mL | 14 ng/mL | 360 ng/mL |
| Cl.O=C(O)CN[C@H](CC1CCCCC1)C(=O)N1CCC[C@H]1C(=O)NCC1=CCNCC1 [Example 58, HO2 CCH2 -D-Cha-Pro-4-NHCH2 -3,4-dehydropiperidine.HCl] | 11,400 ng/mL | 710 ng/mL | 14,300 ng/mL |
| Cl.O=C(O)CN[C@H](CC1CCCCC1)C(=O)N1CCC[C@H]1C(=O)NCCC1=CCNCC1 [Example 59, HO2 CCH2 -D-Cha-Pro-4-NHCH2 CH2 -3,4-dehydropiperidine.HCl] | 7,000 ng/mL | 420 ng/mL | 5,500 ng/mL |
| Cl.O=C(O)CN[C@H](CC1CCCCC1)C(=O)N1CCC[C@H]1C(=O)NCCCC1=CCNCC1 [Example 60, HO2 CCH2 -D-Cha-Pro-4-NHCH2 CH2 CH2 -3,4-dehydropiperidine.HCl] | 77,700 ng/mL | 3,200 ng/mL | 22,200 ng/mL |
| N=C(N)c1ccc(CNC(=O)[C@@H]2CCCN2C(=O)[C@@H](CC2CCCCC2)NCC(=O)O)nc1 [Example 66, HO2 CCH2 -D-Cha-Pro-2-NHCH2 -5-amidinopyridine.HCl] | 270 ng/mL | 7.9 ng/mL | 180 ng/mL |
| N=C(N)C1CCC(CNC(=O)[C@@H]2CCCN2C(=O)[C@@H](CC2CCCCC2)NCC(=O)O)NC1 (stereo partly drawn) [Example 67, HO2 CCH2 -D-Cha-Pro-2-NHCH2 -5-amidinopiperidine.HCl] | 1,300 ng/mL | 34. ng/mL | 1,800 ng/mL |
| Cl.N=C(N)C1=CNC(CNC(=O)[C@@H]2CCCN2C(=O)[C@@H](CC2CCCCC2)NCC(=O)O)CC1 (stereo partly drawn) [Example 68, HO2 CCH2 -D-Cha-Pro-2-NHCH2 -5-amidino-5,6-dehydro-piperidine.HCl] | 190 ng/mL | 4. ng/mL | 49 ng/mL |
| Cl.N=C(N)c1ccc(CNC(=O)[C@@H]2CCCN2C(=O)[C@@H](CC2CCCCC2)NCC(=O)O)nn1 [Example 69, HO2 CCH2 -D-Cha-Pro-3-NHCH2 -6-amidinopyridazine.HCl] | 220 ng/mL | 5. ng/mL | 110 ng/mL |
| Cl.N=C(N)N1CC=C(CNC(=O)[C@@H]2CCCN2C(=O)[C@@H](CC2CCCCC2)NCC(=O)O)CC1 [Example 70, HO2 CCH2 -D-Cha-Pro-4-NHCH2 -1-amidino-3,4-dehydro-piperidine.HCl] | 180 ng/mL | 2 ng/mL | 160 ng/mL |
